# Test results taken from patent publication US20040014140A1, “Methods for identifying allosteric sites” (priority 2002, published 2004).
# Columns and labels:
# caspase-9 = assay: Tethering experiments with caspase-9; parameters: species or system human; settings: binding to the small subunit, cysteine corresponding to Ile-265 in caspase-3
# Method: This example describes one embodiment of a tethering experiment using caspase-3 or cysteine mutants thereof. […] Reactions were allowed to proceed to equilibrium (≧1 hour) before being analyzed by mass spectrometry. The reaction mixture was loaded onto a Finnegan LCQ2 or LCQ3 LCMS, with each run taking 2-5 minutes, depending upon the separation procedure. After deconvolution, the large and/or small subunits were identified based upon their known molecular weight.
# [1] = test system: mutant PTP-1B where Asn-193 is mutated to alanine, Phe-196 is mutated to arginine, and Phe-280 is mutated to cysteine; assay: Inhibition of allosterically disabled mutant PTP-1B; type: biochemical, human; settings: N193A, F196R, F280C mutant; allosteric mechanism disabled
# From the text: The importance of allosteric forming residues, Asn-193, Phe-196, and Phe-280 has been confirmed in part using mutagenesis experiments.
# PTP-1B[321; N193A; F196R; F280C] was generated by joining an NdeI-PstI fragment from PTP-IB[321; N193A; F196R], corresponding to residues 1-215, with a PstI-EcoRI fragment from PTP-1B[321; F280C], corresponding to residues 216-321.
# PTP-1B[298; N193A; F196R; F280C] was generated by PCR using PTP-1B[321; N193A; F196R; F280C] as a template. T7 vector primer was used as forward primer and truncation at residue 298 was generated using the primer 5′-[…] (SEQ ID. NO. 22).
SMILES,selection in tethering experiments (caspase-9),inhibition of mutant PTP-1B [1]
O=C(O)c1ccc(Oc2ccccc2)cc1 [compound 8],selected,–
CCc1oc2cc(S(=O)(=O)Nc3ccc(S(N)(=O)=O)cc3)ccc2c1C(=O)c1cc(Br)c(O)c(Br)c1 [compound 15],–,no longer capable of inhibiting the enzyme
